From US9796711B2, “Substituted pyrazolo[3,4-b]pyridin-6-carboxylic acids and method of use” (AbbVie S.àr.l., priority 2015, dated 2017)

Experiments:
ΔF508-CFTR [1] = target: T1, ΔF508-CFTR (Homo sapiens, UniProt P13569, DEL508-508); assay: CFTR cell surface levels using HRP-tagged ΔF508-CFTR expressing CFBE cells, in the presence of a co-corrector; assay type: cell-based; conditions: HRP-tagged ΔF508-CFTR expressing CFBE cells, in the presence of 3 μM co-corrector; for EC50: read-out: EC50
T1 construct: host or cells: CFBE41o-, doxycycline-inducible
T1 sequence (P13569 with tags, fused parts or gaps DEL508-508): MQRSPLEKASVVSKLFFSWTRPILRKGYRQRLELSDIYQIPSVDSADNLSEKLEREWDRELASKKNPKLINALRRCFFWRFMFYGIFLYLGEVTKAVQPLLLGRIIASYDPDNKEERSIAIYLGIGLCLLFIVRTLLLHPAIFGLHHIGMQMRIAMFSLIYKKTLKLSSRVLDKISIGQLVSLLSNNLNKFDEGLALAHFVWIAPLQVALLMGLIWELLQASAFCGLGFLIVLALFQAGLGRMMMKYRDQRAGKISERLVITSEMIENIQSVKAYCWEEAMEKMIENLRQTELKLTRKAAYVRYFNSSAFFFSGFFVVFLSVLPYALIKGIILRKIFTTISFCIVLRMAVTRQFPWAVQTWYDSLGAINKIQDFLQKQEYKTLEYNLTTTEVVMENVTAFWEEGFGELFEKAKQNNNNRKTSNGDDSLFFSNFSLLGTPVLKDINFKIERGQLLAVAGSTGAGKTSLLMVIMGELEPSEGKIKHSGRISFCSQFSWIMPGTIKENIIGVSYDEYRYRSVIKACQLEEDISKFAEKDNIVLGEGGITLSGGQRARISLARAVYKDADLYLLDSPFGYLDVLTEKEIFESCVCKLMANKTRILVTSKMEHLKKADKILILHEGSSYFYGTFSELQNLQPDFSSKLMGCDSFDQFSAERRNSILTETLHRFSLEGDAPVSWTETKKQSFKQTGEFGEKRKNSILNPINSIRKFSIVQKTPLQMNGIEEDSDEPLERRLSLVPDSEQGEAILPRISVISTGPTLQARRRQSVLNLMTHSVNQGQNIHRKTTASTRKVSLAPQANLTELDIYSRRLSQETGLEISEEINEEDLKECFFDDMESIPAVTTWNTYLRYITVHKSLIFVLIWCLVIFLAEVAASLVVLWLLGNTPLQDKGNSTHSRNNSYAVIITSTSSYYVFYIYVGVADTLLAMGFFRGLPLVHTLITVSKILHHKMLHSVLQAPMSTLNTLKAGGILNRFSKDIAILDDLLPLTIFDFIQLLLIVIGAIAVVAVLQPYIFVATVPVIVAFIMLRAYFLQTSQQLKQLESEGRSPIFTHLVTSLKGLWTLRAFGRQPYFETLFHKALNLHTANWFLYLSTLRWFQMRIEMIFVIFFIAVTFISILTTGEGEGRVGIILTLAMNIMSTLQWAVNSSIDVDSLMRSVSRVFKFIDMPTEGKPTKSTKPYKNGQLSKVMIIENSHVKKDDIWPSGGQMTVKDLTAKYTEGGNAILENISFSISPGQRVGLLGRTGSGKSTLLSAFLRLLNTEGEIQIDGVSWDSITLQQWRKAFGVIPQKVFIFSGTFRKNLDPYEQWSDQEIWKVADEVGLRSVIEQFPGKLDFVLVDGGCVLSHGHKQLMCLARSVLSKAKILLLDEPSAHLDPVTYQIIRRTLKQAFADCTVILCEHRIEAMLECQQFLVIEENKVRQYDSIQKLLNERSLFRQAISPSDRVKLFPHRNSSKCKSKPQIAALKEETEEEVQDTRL
Summary of the method: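 Cells were seeded with 0.5 μg/mL doxycycline and held 68 h at 37 °C. Test compounds plus 3 μM co-corrector (final 0.1% DMSO) were then added for 20 h at 33 °C. Washed cells received HRP substrate, and luminescence was normalized between DMSO and 3 μM co-corrector controls.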

ΔF508-CFTR [2] = target: T1, ΔF508-CFTR; assay: CFTR cell surface levels using HRP-tagged ΔF508-CFTR expressing CFBE cells, intrinsic corrector capacity; assay type: cell-based; conditions: HRP-tagged ΔF508-CFTR expressing CFBE cells, intrinsic corrector capacity (no co-corrector), 33° C., 20 hours; for EC50: read-out: EC50
Summary of the method: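 Here the cells express ΔF508-CFTR with horseradish peroxidase inserted in extracellular loop 4, so only rescued channel at the surface gives luminescent signal. Compounds act on their own, 20 h at the reduced temperature of 33 °C; values are percent activity relative to DMSO and a 3 μM corrector.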

For O=C(O)c1cc(N2CCC(N3CCC(F)C3)CC2)c2c(C3CCC3)nn(-c3ccc(F)cc3)c2n1 (centres unmarked) [compound 846, 3-cyclobutyl-1-(4-fluorophenyl)-4-[4-(3-fluoropyrrolidin-1-yl)piperidin-1-yl]-1H-pyrazolo[3,4-b]pyridine-6-carboxylic acid], the “% Activation” value (ΔF508-CFTR [1]) was 495.1%, the EC50 (ΔF508-CFTR [1]) was 968 nM and the “% Activation” value (ΔF508-CFTR [2]) was 317.9%. The EC50 (ΔF508-CFTR [2]) was 874 nM.
For N#CC1CN(C2CCN(c3cc(C(=O)O)nc4c3c(C3CCC3)nn4-c3ccc(F)cc3)CC2)C1 [compound 847, 4-[4-(3-cyanoazetidin-1-yl)piperidin-1-yl]-3-cyclobutyl-1-(4-fluorophenyl)-1H-pyrazolo[3,4-b]pyridine-6-carboxylic acid], the “% Activation” value (ΔF508-CFTR [1]) was 503.8%, the EC50 (ΔF508-CFTR [1]) was 286 nM and the “% Activation” value (ΔF508-CFTR [2]) was 279.1%. For the same molecule, the EC50 (ΔF508-CFTR [2]) was 539 nM.
For COC1CCN(C2CCN(c3cc(C(=O)O)nc4c3c(C3CCC3)nn4-c3ccc(F)cc3)CC2)C1 (centres unmarked) [compound 848, 3-cyclobutyl-1-(4-fluorophenyl)-4-[4-(3-methoxypyrrolidin-1-yl)piperidin-1-yl]-1H-pyrazolo[3,4-b]pyridine-6-carboxylic acid], the “% Activation” value (ΔF508-CFTR [1]) was 405.2%, the EC50 (ΔF508-CFTR [1]) was 427 nM and the “% Activation” value (ΔF508-CFTR [2]) was 249%. It also gave an EC50 (ΔF508-CFTR [2]) of 1200 nM.
With O=C(O)c1cc(N2CCC(N3CCC(F)(F)CC3)CC2)c2c(C3CCC3)nn(-c3ccc(F)cc3)c2n1 [compound 850, 3-cyclobutyl-4-(4,4-difluoro[1,4′-bipiperidin]-1′-yl)-1-(4-fluorophenyl)-1H-pyrazolo[3,4-b]pyridine-6-carboxylic acid] the “% Activation” value (ΔF508-CFTR [1]) was 615.6%, the EC50 (ΔF508-CFTR [1]) was 88.9 nM and the “% Activation” value (ΔF508-CFTR [2]) was 234.4%. For the same molecule, the EC50 (ΔF508-CFTR [2]) was 74.1 nM.
N#CC1CN(C2CCN(c3cc(C(=O)O)nc4c3c(C3CCC3)nn4-c3ccc(F)cc3)CC2)CCO1 (centres unmarked) [compound 851, 4-[4-(2-cyanomorpholin-4-yl)piperidin-1-yl]-3-cyclobutyl-1-(4-fluorophenyl)-1H-pyrazolo[3,4-b]pyridine-6-carboxylic acid] was tested, and the “% Activation” value (ΔF508-CFTR [1]) was 559.8%, the EC50 (ΔF508-CFTR [1]) was 123 nM and the “% Activation” value (ΔF508-CFTR [2]) was 342.9%. The EC50 (ΔF508-CFTR [2]) was 244 nM.
With O=C(O)c1cc(N2CCC(N3CC4CC3CO4)CC2)c2c(C3CCC3)nn(-c3ccc(F)cc3)c2n1 (centres unmarked) [compound 852, 3-cyclobutyl-1-(4-fluorophenyl)-4-[4-(2-oxa-5-azabicyclo[2.2.1]heptan-5-yl)piperidin-1-yl]-1H-pyrazolo[3,4-b]pyridine-6-carboxylic acid] the “% Activation” value (ΔF508-CFTR [1]) was 391.4%, the EC50 (ΔF508-CFTR [1]) was 3330 nM and the “% Activation” value (ΔF508-CFTR [2]) was 120.6%. The EC50 (ΔF508-CFTR [2]) was 1710 nM.
In the case of COCC1CN(C2CCN(c3cc(C(=O)O)nc4c3c(C3CCC3)nn4-c3ccc(F)cc3)CC2)CCO1 (centres unmarked) [compound 853, 3-cyclobutyl-1-(4-fluorophenyl)-4-{4-[2-(methoxymethyl)morpholin-4-yl]piperidin-1-yl}-1H-pyrazolo[3,4-b]pyridine-6-carboxylic acid], the “% Activation” value (ΔF508-CFTR [1]) is reported as 509.5%, the EC50 (ΔF508-CFTR [1]) is reported as 177 nM and the “% Activation” value (ΔF508-CFTR [2]) is reported as 290.9%. The EC50 (ΔF508-CFTR [2]) was 261 nM.
With CN(C1CCOCC1)C1CCN(c2cc(C(=O)O)nc3c2c(C2CCC2)nn3-c2ccc(F)cc2)CC1 [compound 854, 3-cyclobutyl-1-(4-fluorophenyl)-4-{4-[methyl(oxan-4-yl)amino]piperidin-1-yl}-1H-pyrazolo[3,4-b]pyridine-6-carboxylic acid] the “% Activation” value (ΔF508-CFTR [1]) was 380.7%, the EC50 (ΔF508-CFTR [1]) was 3330 nM and the “% Activation” value (ΔF508-CFTR [2]) was 131.1%. For the same molecule, the EC50 (ΔF508-CFTR [2]) was 2080 nM.
In the case of CC(C)Oc1cc(-n2nc(C3CCC3)c3c(N4CCC(N5CCOCC5)CC4)cc(C(=O)O)nc32)ccn1 [compound 855, 3-cyclobutyl-4-[4-(morpholin-4-yl)piperidin-1-yl]-1-{2-[(propan-2-yl)oxy]pyridin-4-yl}-1H-pyrazolo[3,4-b]pyridine-6-carboxylic acid], the “% Activation” value (ΔF508-CFTR [1]) is reported as 490.9%, the EC50 (ΔF508-CFTR [1]) is reported as 87.2 nM and the “% Activation” value (ΔF508-CFTR [2]) is reported as 304.2%. The EC50 (ΔF508-CFTR [2]) was 197 nM.
O=C(O)c1cc(N2CCC(N3CCOCC3)CC2)c2c(C3CCC3)nn(-c3ccnc(OCc4ccccc4)c3)c2n1 [compound 856, 1-[2-(benzyloxy)pyridin-4-yl]-3-cyclobutyl-4-[4-(morpholin-4-yl)piperidin-1-yl]-1H-pyrazolo[3,4-b]pyridine-6-carboxylic acid] was tested, and the “% Activation” value (ΔF508-CFTR [1]) was 416.9%, the EC50 (ΔF508-CFTR [1]) was 88.3 nM and the “% Activation” value (ΔF508-CFTR [2]) was 230.7%. For the same molecule, the EC50 (ΔF508-CFTR [2]) was 248 nM.
For O=C(O)c1cc(CN2CCOCC2)c2c(C3CCC3)nn(-c3ccc(F)cc3)c2n1 [compound 857, 3-cyclobutyl-1-(4-fluorophenyl)-4-[(morpholin-4-yl)methyl]-1H-pyrazolo[3,4-b]pyridine-6-carboxylic acid], the “% Activation” value (ΔF508-CFTR [1]) was 232.2%, the EC50 (ΔF508-CFTR [1]) was 2440 nM and the “% Activation” value (ΔF508-CFTR [2]) was 60.01%. It also gave an EC50 (ΔF508-CFTR [2]) of 3330 nM.
With CN1CCN(Cc2cc(C(=O)O)nc3c2c(C2CCC2)nn3-c2ccc(F)cc2)CC1 [compound 858, 3-cyclobutyl-1-(4-fluorophenyl)-4-[(4-methylpiperazin-1-yl)methyl]-1H-pyrazolo[3,4-b]pyridine-6-carboxylic acid] the “% Activation” value (ΔF508-CFTR [1]) was 168.6%, the EC50 (ΔF508-CFTR [1]) was 3180 nM and the “% Activation” value (ΔF508-CFTR [2]) was 29.24%.
In the case of COCC1CCN(Cc2cc(C(=O)O)nc3c2c(C2CCC2)nn3-c2ccc(F)cc2)CC1 [compound 859, 3-cyclobutyl-1-(4-fluorophenyl)-4-{[4-(methoxymethyl)piperidin-1-yl]methyl}-1H-pyrazolo[3,4-b]pyridine-6-carboxylic acid], the “% Activation” value (ΔF508-CFTR [1]) is reported as 291.4%, the EC50 (ΔF508-CFTR [1]) is reported as 2560 nM and the “% Activation” value (ΔF508-CFTR [2]) is reported as 89.07%. It also gave an EC50 (ΔF508-CFTR [2]) of 2230 nM.
With N#CC1CCN(C2CCN(c3cc(C(=O)O)nc4c3c(C3CCC3)nn4-c3ccc(F)cc3)CC2)CC1 [compound 860, 4-(4-cyano[1,4′-bipiperidin]-1′-yl)-3-cyclobutyl-1-(4-fluorophenyl)-1H-pyrazolo[3,4-b]pyridine-6-carboxylic acid] the “% Activation” value (ΔF508-CFTR [1]) was 576.25%, the EC50 (ΔF508-CFTR [1]) was 417 nM and the “% Activation” value (ΔF508-CFTR [2]) was 383%. It also gave an EC50 (ΔF508-CFTR [2]) of 517 nM.
For CC(C)Oc1nn(C2CCCCC2)c2nc(C(=O)O)cc(-c3ccc(C(=O)N4CCC(N(C)C)CC4)cc3)c12 [compound 861, 1-cyclohexyl-4-{4-[4-(dimethylamino)piperidine-1-carbonyl]phenyl}-3-[(propan-2-yl)oxy]-1H-pyrazolo[3,4-b]pyridine-6-carboxylic acid], the “% Activation” value (ΔF508-CFTR [1]) was 155.4% and the “% Activation” value (ΔF508-CFTR [2]) was 31.08%.
O=C(O)c1cc(N2CCC3(CC2)CC(N2CCCC2)CO3)c2c(C3CCC3)nn(-c3ccc(F)cc3)c2n1 (centres unmarked) [compound 862, 3-cyclobutyl-1-(4-fluorophenyl)-4-[3-(pyrrolidin-1-yl)-1-oxa-8-azaspiro[4.5]decan-8-yl]-1H-pyrazolo[3,4-b]pyridine-6-carboxylic acid] was tested, and the “% Activation” value (ΔF508-CFTR [1]) was 359.6%, the EC50 (ΔF508-CFTR [1]) was 636 nM and the “% Activation” value (ΔF508-CFTR [2]) was 186.5%. It also gave an EC50 (ΔF508-CFTR [2]) of 637 nM.
CC(C)Oc1nn(C2CCCCC2)c2nc(C(=O)O)cc(-c3ccc(N4CCN(C(C)C)CC4)cc3)c12 [compound 863, 1-cyclohexyl-3-[(propan-2-yl)oxy]-4-{4-[4-(propan-2-yl)piperazin-1-yl]phenyl}-1H-pyrazolo[3,4-b]pyridine-6-carboxylic acid] was tested, and the “% Activation” value (ΔF508-CFTR [1]) was 320.9%, the EC50 (ΔF508-CFTR [1]) was 370 nM and the “% Activation” value (ΔF508-CFTR [2]) was 156.35%. For the same molecule, the EC50 (ΔF508-CFTR [2]) was 499 nM.
With Cc1cc(N2CCN(c3cc(C(=O)O)nc4c3c(C3CCC3)nn4C3CCCCC3)CC2)ccn1 [compound 864, 3-cyclobutyl-1-cyclohexyl-4-[4-(2-methylpyridin-4-yl)piperazin-1-yl]-1H-pyrazolo[3,4-b]pyridine-6-carboxylic acid] the “% Activation” value (ΔF508-CFTR [1]) was 458.6%, the EC50 (ΔF508-CFTR [1]) was 105 nM and the “% Activation” value (ΔF508-CFTR [2]) was 337.7%. It also gave an EC50 (ΔF508-CFTR [2]) of 1010 nM.
CC(C)N1CCN(c2ccc(-c3cc(C(=O)O)nc4c3c(C3CCC3)nn4C3CCCCC3)cn2)CC1 [compound 865, 3-cyclobutyl-1-cyclohexyl-4-{6-[4-(propan-2-yl)piperazin-1-yl]pyridin-3-yl}-1H-pyrazolo[3,4-b]pyridine-6-carboxylic acid] was tested, and the “% Activation” value (ΔF508-CFTR [1]) was 306.8%, the EC50 (ΔF508-CFTR [1]) was 1120 nM and the “% Activation” value (ΔF508-CFTR [2]) was 146.9%. It also gave an EC50 (ΔF508-CFTR [2]) of 439 nM.
CC(c1ccc(-c2cc(C(=O)O)nc3c2c(C2CCC2)nn3C2CCCCC2)cc1)N1CCOCC1 (centres unmarked) [compound 866, 3-cyclobutyl-1-cyclohexyl-4-{4-[1-(morpholin-4-yl)ethyl]phenyl}-1H-pyrazolo[3,4-b]pyridine-6-carboxylic acid] was tested, and the “% Activation” value (ΔF508-CFTR [1]) was 298.3%, the EC50 (ΔF508-CFTR [1]) was 151 nM and the “% Activation” value (ΔF508-CFTR [2]) was 99.71%. It also gave an EC50 (ΔF508-CFTR [2]) of 277 nM.
In the case of CC(C)N1CCN(c2ccc(-c3cc(C(=O)O)nc4c3c(C3CCC3)nn4C3CCCCC3)cc2)CC1 [compound 867, 3-cyclobutyl-1-cyclohexyl-4-{4-[4-(propan-2-yl)piperazin-1-yl]phenyl}-1H-pyrazolo[3,4-b]pyridine-6-carboxylic acid], the “% Activation” value (ΔF508-CFTR [1]) is reported as 290.65%, the EC50 (ΔF508-CFTR [1]) is reported as 317 nM and the “% Activation” value (ΔF508-CFTR [2]) is reported as 125.2%. For the same molecule, the EC50 (ΔF508-CFTR [2]) was 1410 nM.
For O=C(O)c1cc(-c2ccc(N3CCN(C4CC4)CC3)nc2)c2c(C3CCC3)nn(C3CCCCC3)c2n1 [compound 868, 3-Cyclobutyl-1-cyclohexyl-4-[6-(4-cyclopropylpiperazin-1-yl)-pyridin-3-yl]-1H-pyrazolo[3,4-b]pyridine-6-carboxylic acid], the “% Activation” value (ΔF508-CFTR [1]) was 337.8%, the EC50 (ΔF508-CFTR [1]) was 176 nM and the “% Activation” value (ΔF508-CFTR [2]) was 140.3%. For the same molecule, the EC50 (ΔF508-CFTR [2]) was 239 nM.
With O=C(O)c1cc(N2CCC(N3CCC(C(F)(F)F)C3)CC2)c2c(C3CCC3)nn(-c3ccc(F)cc3)c2n1 (centres unmarked) [compound 869] the “% Activation” value (ΔF508-CFTR [1]) was 513.05%, the EC50 (ΔF508-CFTR [1]) was 37.7 nM and the “% Activation” value (ΔF508-CFTR [2]) was 299.1%. For the same molecule, the EC50 (ΔF508-CFTR [2]) was 113 nM.
